# Tests used:
# [1] = Solubility of the compound by high throughput solubility assay; type: physicochemical
# Staphylococcus aureus [2] = experiment: Antibacterial activity against methicillin sensitive Staphylococcus aureus ARC516 by broth microdilution method; type: functional
# [3] = Inhibition of recombinant Escherichia coli DNA gyrase AB expressed in Escherichia coli BL21 (DE3) using relaxed pJT519 DNA as substrate preincubated for 20 mins followed by 5'-BODIPY-TMR-TTCTTCTTCT addition and measured after 1 hr by fluorescence anisotropy
# Staphylococcus aureus [4] = experiment: Antibacterial activity against methicillin sensitive Staphylococcus aureus ARC516 in presence of human serum by broth microdilution method; type: functional
# Haemophilus influenzae = experiment: Antibacterial activity against Haemophilus influenzae ARC737 by broth microdilution method; type: functional
# [5] = Protein binding in human plasma assessed as unbound fraction at 10 uM measured after 16 hrs by LC-MS/MS based equilibrium dialysis method; type: ADME, cell-free
# [6] = n-octanol/phosphate buffer partition coefficient, log D of the compound at pH 7.4 measured after 1 hr by UV-LC/MS based shake flask method; type: physicochemical
# Streptococcus pneumoniae = experiment: Antibacterial activity against Streptococcus pneumoniae ARC548 by broth microdilution method; type: functional
# Streptococcus pyogenes = experiment: Antibacterial activity against Streptococcus pyogenes ARC838 by broth microdilution method; type: functional
# Staphylococcus aureus [7] = experiment: Antibacterial activity against methicillin/quinolone-resistant Staphylococcus aureus ARC517 by broth microdilution method; type: functional
# Escherichia coli = experiment: Antibacterial activity against Escherichia coli ARC523 by broth microdilution method; type: functional
# [8] = Ratio of MIC for antibacterial activity against methicillin/quinolone-resistant Staphylococcus aureus ARC517 to protein binding in human plasma assessed as unbound fraction
# L5178Y = experiment: Genotoxicity in mouse L5178Y cells using DAPI staining by microscopy based micronucleation assay; type: toxicity, cell-based
Compound,solubility [1],MIC (Staphylococcus aureus [2]),IC50 [3],MIC (Staphylococcus aureus [4]),MIC (Haemophilus influenzae),"fraction unbound at 16 h, 10 µM [5]",logD at 1 h [6],MIC (Streptococcus pneumoniae),MIC (Streptococcus pyogenes),MIC (Staphylococcus aureus [7]),MIC (Escherichia coli),Ratio [8],NOAEL (L5178Y)
C[C@@H]1CN2c3c(cc4c(-n5ncnc5N5CCOCC5)noc4c3F)CC3(C(=O)NC(=O)NC3=O)[C@H]2[C@H](C)O1,> 1000 µM,0.39 µM,660 nM,0.78 µM,1.6 µM,0.17,1.6,1.6 µM,0.78 µM,0.98 µM,200 µM,–,–
C[C@@H]1CN2c3c(cc4c(-n5ccnc5)noc4c3F)CC3(C(=O)NC(=O)NC3=O)[C@H]2[C@H](C)O1 (racemic),12 µM,1.56 µM,490 nM,12.5 µM,–,0.031,2,–,–,12.5 µM,50 µM,400,–
C[C@@H]1CN2c3c(cc4c(-n5ccnn5)noc4c3F)CC3(C(=O)NC(=O)NC3=O)[C@H]2[C@H](C)O1,130 µM,0.068 µM,220 nM,0.78 µM,–,0.054,2,–,–,0.39 µM,6.25 µM,7.2,–
C[C@@H]1CN2c3c(cc4c(-n5ncnc5[C@@H](C)O)noc4c3F)CC3(C(=O)NC(=O)NC3=O)[C@H]2[C@H](C)O1,920 µM,0.39 µM,180 nM,0.78 µM,0.78 µM,0.23,1.4,0.78 µM,0.78 µM,0.78 µM,50 µM,–,–
C[C@@H]1CN2c3c(cc4c(-n5ncnc5N)noc4c3F)CC3(C(=O)NC(=O)NC3=O)[C@H]2[C@H](C)O1,460 µM,0.049 µM,75 nM,< 0.2 µM,0.39 µM,0.11,1.9,0.098 µM,0.098 µM,< 0.2 µM,12 µM,–,6 µM
C[C@@H]1CN2c3c(cc4c(-n5cccn5)noc4c3F)CC3(C(=O)NC(=O)NC3=O)[C@H]2[C@H](C)O1 (racemic),29 µM,0.39 µM,–,3.1 µM,–,< 0.01,3,–,–,0.78 µM,25 µM,>80,–
Cc1ncn(-c2noc3c(F)c4c(cc23)CC2(C(=O)NC(=O)NC2=O)[C@H]2[C@H](C)O[C@H](C)CN42)n1,29 µM,0.2 µM,1000 nM,0.78 µM,1.6 µM,0.053,1.9,3.1 µM,0.78 µM,0.78 µM,100 µM,–,–
COCCNc1ncnn1-c1noc2c(F)c3c(cc12)CC1(C(=O)NC(=O)NC1=O)[C@H]1[C@H](C)O[C@H](C)CN31,6 µM,0.039 µM,38 nM,< 0.2 µM,0.39 µM,0.077,2.2,< 0.2 µM,< 0.2 µM,0.098 µM,25 µM,–,–
C[C@@H]1CN2c3c(cc4c(-n5ncnc5NCCN(C)C)noc4c3F)CC3(C(=O)NC(=O)NC3=O)[C@H]2[C@H](C)O1,> 1000 µM,0.78 µM,150 nM,0.78 µM,1.6 µM,0.53,1.4,0.39 µM,0.39 µM,6.2 µM,50 µM,–,> 400 µM
COCCOc1ncnn1-c1noc2c(F)c3c(cc12)CC1(C(=O)NC(=O)NC1=O)[C@H]1[C@H](C)O[C@H](C)CN31,640 µM,0.39 µM,320 nM,1.6 µM,0.39 µM,0.12,1.7,< 0.2 µM,< 0.2 µM,1.6 µM,100 µM,–,–
C[C@@H]1CN2c3c(cc4c(-n5ncnc5NCCN5CCOCC5)noc4c3F)CC3(C(=O)NC(=O)NC3=O)[C@H]2[C@H](C)O1,150 µM,< 0.2 µM,310 nM,0.78 µM,1.6 µM,0.11,2.1,0.39 µM,0.39 µM,3.5 µM,100 µM,–,–
C[C@H](O)CNc1ncnn1-c1noc2c(F)c3c(cc12)CC1(C(=O)NC(=O)NC1=O)[C@H]1[C@H](C)O[C@H](C)CN31,200 µM,< 0.2 µM,260 nM,< 0.2 µM,0.39 µM,0.12,1.9,0.19 µM,0.19 µM,0.63 µM,25 µM,–,–

# — ChEMBL document CHEMBL4725408, “Antibacterial Spiropyrimidinetriones with N-Linked Azole Substituents on a Benzisoxazole Scaffold Targeting DNA Gyrase” (J Med Chem, 2020)
